In ChEMBL document CHEMBL3885881, “DrugMatrix”:

Species: Rattus norvegicus
Assay: DrugMatrix - Regimen: Daily Repeat
Format: toxicity, organism-based, Sprague-Dawley
Design: regimen Daily Repeat, gender Male, age 6-8 weeks
Conditions: in vivo, po, route oral GAVAGE, […]; for BASOPHIL / EOSINOPHIL / ERYTHROCYTE COUNT / HEMATOCRIT / HEMOGLOBIN / LEUKOCYTE COUNT / LYMPHOCYTE / MEAN CORPUSCULAR HEMOGLOBIN / MEAN CORPUSCULAR HEMOGLOBIN CONCENTRATION / MEAN CORPUSCULAR VOLUME / MONOCYTE / NEUTROPHIL / PLATELET COUNT / ABSOLUTE BASOPHIL / ABSOLUTE EOSINOPHIL / ABSOLUTE LYMPHOCYTE / ABSOLUTE MONOCYTE / ABSOLUTE SEGMENTED NEUTROPHIL / NUCLEATED RED BLOOD CELLS: tissue Blood; for ALANINE AMINOTRANSFERASE / ALBUMIN / ALKALINE PHOSPHATASE / ASPARTATE AMINOTRANSFERASE / BLOOD UREA NITROGEN / CHLORIDE / CHOLESTEROL / CREATINE PHOSPHOKINASE / CREATININE / GLUCOSE / PHOSPHORUS / POTASSIUM / SODIUM / TOTAL BILIRUBIN / TOTAL PROTEIN / CARBON DIOXIDE / LACTATE DEHYDROGENASE / LIPASE / URIC ACID: tissue Plasma
[1] = 0 mg/kg, 120 h, dose level Control, time 5 day
[2] = 0 mg/kg, dose level Control, time 28 day
[3] = 11 mg/kg, 72 h, dose level High, time 3 day
[4] = 11 mg/kg, 120 h, dose level High, time 5 day

**Q.** What does the source list for `O=[N+]([O-])c1cc([As](=O)(O)O)ccc1O` [ROXARSONE]?
**A.** BASOPHIL [1]: 0.32%; EOSINOPHIL [1]: 0.58%; ERYTHROCYTE COUNT [1]: 7.26 x10E6/uL; HEMATOCRIT [1]: 46.94%; HEMOGLOBIN [1]: 14.9 G/DL; LEUKOCYTE COUNT [1]: 8.69 x10E3/uL; LYMPHOCYTE [1]: 81.52%; MEAN CORPUSCULAR HEMOGLOBIN [1]: 20.58 pg; MEAN CORPUSCULAR HEMOGLOBIN CONCENTRATION [1]: 31.8 G/DL; MEAN CORPUSCULAR VOLUME [1]: 64.68 fL; MONOCYTE [1]: 2.16%; NEUTROPHIL [1]: 13.88%; PLATELET COUNT [1]: 1531.2 x10E3/uL; ALANINE AMINOTRANSFERASE [1]: 33.2 u/L; ALBUMIN [1]: 3.74 G/DL; ALKALINE PHOSPHATASE [1]: 318 u/L; ASPARTATE AMINOTRANSFERASE [1]: 78.6 u/L; BLOOD UREA NITROGEN [1]: 6 mg/dL; CHLORIDE [1]: 108.4 MEQ/L; CHOLESTEROL [1]: 63 mg/dL; CREATINE PHOSPHOKINASE [1]: 251 u/L; CREATININE [1]: 0.18 mg/dL; GLUCOSE [1]: 125.6 mg/dL; PHOSPHORUS [1]: 12.06 mg/dL; POTASSIUM [1]: 5.92 MEQ/L; SODIUM [1]: 146.8 MEQ/L; TOTAL BILIRUBIN [1]: 0.16 mg/dL; TOTAL PROTEIN [1]: 6.06 G/DL; BASOPHIL [2]: 0.42%; EOSINOPHIL [2]: 0.58%; ERYTHROCYTE COUNT [2]: 8.06 x10E6/uL; HEMATOCRIT [2]: 48.44%; HEMOGLOBIN [2]: 16.34 G/DL; LEUKOCYTE COUNT [2]: 13.04 x10E3/uL; LYMPHOCYTE [2]: 85.12%; MEAN CORPUSCULAR HEMOGLOBIN [2]: 20.26 pg; MEAN CORPUSCULAR HEMOGLOBIN CONCENTRATION [2]: 33.74 G/DL; MEAN CORPUSCULAR VOLUME [2]: 60.1 fL; MONOCYTE [2]: 1.44%; NEUTROPHIL [2]: 11.28%; PLATELET COUNT [2]: 1226 x10E3/uL; ALANINE AMINOTRANSFERASE [2]: 28.6 u/L; ALBUMIN [2]: 3.94 G/DL; ALKALINE PHOSPHATASE [2]: 254.6 u/L; ASPARTATE AMINOTRANSFERASE [2]: 67.8 u/L; BLOOD UREA NITROGEN [2]: 10.4 mg/dL; CHLORIDE [2]: 104.6 MEQ/L; CHOLESTEROL [2]: 57.6 mg/dL; CREATINE PHOSPHOKINASE [2]: 224.8 u/L; CREATININE [2]: 0.4 mg/dL; GLUCOSE [2]: 140.6 mg/dL; PHOSPHORUS [2]: 10.66 mg/dL; POTASSIUM [2]: 6.58 MEQ/L; SODIUM [2]: 148.6 MEQ/L; TOTAL BILIRUBIN [2]: 0.24 mg/dL; TOTAL PROTEIN [2]: 6.64 G/DL; ABSOLUTE BASOPHIL [3]: 0 CELLS/uL; ABSOLUTE EOSINOPHIL [3]: 38.67 CELLS/uL; ABSOLUTE LYMPHOCYTE [3]: 12107.67 CELLS/uL; ABSOLUTE MONOCYTE [3]: 206 CELLS/uL; ABSOLUTE SEGMENTED NEUTROPHIL [3]: 1247.67 CELLS/uL; BASOPHIL [3]: 0%; EOSINOPHIL [3]: 0.33%; ERYTHROCYTE COUNT [3]: 6.03 x10E6/uL; HEMATOCRIT [3]: 38.2%; HEMOGLOBIN [3]: 14.6 G/DL; LEUKOCYTE COUNT [3]: 13.6 x10E3/uL; LYMPHOCYTE [3]: 89%; MEAN CORPUSCULAR HEMOGLOBIN [3]: 24.2 pg; MEAN CORPUSCULAR HEMOGLOBIN CONCENTRATION [3]: 38.2 G/DL; MEAN CORPUSCULAR VOLUME [3]: 63.27 fL; MONOCYTE [3]: 1.67%; NEUTROPHIL [3]: 9%; NUCLEATED RED BLOOD CELLS [3]: 0 /100WBC; PLATELET COUNT [3]: 1141 x10E3/uL; ALANINE AMINOTRANSFERASE [3]: 88 u/L; ALBUMIN [3]: 3.93 G/DL; ALKALINE PHOSPHATASE [3]: 483.33 u/L; ASPARTATE AMINOTRANSFERASE [3]: 108 u/L; BLOOD UREA NITROGEN [3]: 10.67 mg/dL; CARBON DIOXIDE [3]: 29.33 mmol/L; CHLORIDE [3]: 100.67 MEQ/L; CHOLESTEROL [3]: 66.67 mg/dL; CREATINE PHOSPHOKINASE [3]: 464.67 u/L; CREATININE [3]: 0.15 mg/dL; GLUCOSE [3]: 142.67 mg/dL; LACTATE DEHYDROGENASE [3]: 448 u/L; LIPASE [3]: 11.67 u/L; PHOSPHORUS [3]: 11.03 mg/dL; POTASSIUM [3]: 6.34 MEQ/L; SODIUM [3]: 143.37 MEQ/L; TOTAL BILIRUBIN [3]: 0.2 mg/dL; TOTAL PROTEIN [3]: 5.6 G/DL; URIC ACID [3]: 1.6 mg/dL; ABSOLUTE BASOPHIL [4]: 0 CELLS/uL; ABSOLUTE EOSINOPHIL [4]: 0 CELLS/uL; ABSOLUTE LYMPHOCYTE [4]: 14104 CELLS/uL; ABSOLUTE MONOCYTE [4]: 363 CELLS/uL; ABSOLUTE SEGMENTED NEUTROPHIL [4]: 1099.67 CELLS/uL; NUCLEATED RED BLOOD CELLS [4]: 0 /100WBC; CARBON DIOXIDE [4]: 29.67 mmol/L; LACTATE DEHYDROGENASE [4]: 358.67 u/L; LIPASE [4]: 11.33 u/L; URIC ACID [4]: 1.37 mg/dL
